Reference: patent US8623331B2, “Compressed chewing gum tablet” (Fertin Pharma A/S, priority 2007, dated 2014)
“Also recorded” adds a separate entry of the source.

Columns and labels:
[1] = Release control, gum base content different with respect to composition (two-module compressed chewing gum tablet); details: first layer: NPR outside the gum base granules; second layer: Na2CO3 approx. 50 Wt-% outside and approx. 50 Wt-% incorporated in the granules
Experimental: (§1) Control of the release was tested for chewing gum tablets comprising two modules with different gum base content and a different active ingredient in each of them.
In this example a gum base content different with respect to composition was investigated. In the first layer the active ingredient (NPR) was added to the chewing gum composition outside the gum base granules and in the second layer the active ingredient (Na2CO3 pH control agent) was added approximately 50 Wt-% to the chewing gum composition outside the gum base granules and approximately 50 Wt-% incorporated in the granules.
To ensure that the result of this example was not due to different API in the two layers, the example was further supplemented with a test with the same amount of a same API incorporated in the granules and added directly to the composition respectively, where it was again seen that the release was dependent on the chewing gum composition

[2] = Release control, different size of applied chewing gum granules (two-module compressed chewing gum tablet); details: first layer: NPR with granules of relatively smaller average diameter; second layer: Na2CO3 with granules of relatively larger average diameter
Experimental: as §1
In this example a gum base content different with respect to size of applied chewing gum granules was investigated.
In the first layer the active ingredient (NPR) was present with chewing gum granules with a relatively smaller average diameter and in the second layer the active ingredient (Na2CO3 pH control agent) was present with chewing gum granules with a relatively larger average diameter.
To ensure that the result of this example was not due to different API in the two layers, the example was further supplemented with a test with the same API in two compositions of different chewing gum granule sizes. Here it was again seen that the release was dependent on the size of the chewing gum granules used in the layers of the gum base content in the chewing gum composition.

[3] = Release control, gum base content different with respect to weight (two-module compressed chewing gum tablet); details: first layer: NPR with a large amount of gum base; second layer: Na2CO3 with a small amount of gum base
Experimental: as §1
In this example a gum base content different with respect to weight was investigated. In the first layer the active ingredient (NPR) was present with a large amount of gum base and in the second layer the active ingredient (Na2CO3 pH control agent) was present with a small amount of gum base.
To ensure that the result of this example was not due to different API in the two layers, the example was further supplemented with a test with two different weights of the same API in the compositions in the two layers, where it was again seen that the release was dependent on the weight of the gum base content in the chewing gum composition.

- release of active ingredient from the chewing gum tablet [2]: faster than the release of the NPR
- release of active ingredient from the chewing gum tablet [3]: faster than the release of the NPR
Structure (SMILES): O=C([O-])[O-].[Na+].[Na+] [Na2CO3]
- release of active ingredient from the chewing gum tablet [1]: fast release of part of the pH control agent; also recorded: slower release of the remaining part of the pH control agent
